# Measured values published in patent US20250257103A1, “Antimicrobial Proteins” (The Olive Feed Corporation Limited, priority 2024, published 2025).
# Where no end group is shown, it is not given here.
# Tests used:
# Assay in all cases: Candida growth inhibition, micro-broth dilution
# Assay type in all cases: cell-based
# Candida albicans 5314 = conditions: estimate
# Procedure: (§1) The proteins were chemically synthesised by solid phase peptide synthesis at a purity of >90% by (GL Biochem Ltd. Shanghai, People's Republic of China). Post-synthesis, the proteins were stored lyophilised at −20° C. to maintain their integrity. The proteins were weighed and dissolved in ultrapure water as a stock solution prior to experimentation. For all assays a 1:1 dilution was made with double-strength broth, the composition of which was tailored to the specific requirements of the organism.
# (§2) Antifungal activity was assessed by a micro-broth dilution method modified by Handcock for cationic peptides and proteins. Given the propensity of cationic peptides and proteins to bind polystyrene, 96-well polypropylene plates were used as an alternative. Candida species MIC analysis were performed using ½ strength potato dextrose broth (PDB).
# (§3) 96-well flat-bottomed polypropylene plates were prepared 30 mins prior to inoculation. The outer wells of the plate were filled with 200 μl of diH2O to mitigate evaporation in test lanes during incubation with low volumes and for prolonged periods. Given the high cost of the synthetic proteins minimal volume of 100 μl was utilised, and preliminary testing was conducted in duplicate. 50 μl of ½ strength PDB was dispensed into all remaining wells except column 3. 100 μl was added to column 2 and acting as a ‘broth only’ sterile control. Subsequently, 100 μl of the top standard protein solution, prepared at a 2× concentration (500 μg/ml) and suspended in half-strength PDB, was added to column 3. Using a multichannel pipette, 50 μl from each well in column 3 (rows B through G) were mixed with an equal volume of broth in column 4. This procedure was repeated by serial diluting the protein down to column 10. The final […] was not transferred to lane 11 but was instead disposed of.
# (§4) Candida species were grown over 48 hours on ½ strength potato dextrose agar (PDA) at a temperature of 35° C. Cells were harvested directly from the agar plates and resuspended in 2 ml of ½ PDB. The cell concentration was determined using a haemocytometer, and subsequently, cells were diluted to 1×10^5 cells/ml in ½ strength PDB, resulting in a concentration of 5,000 cells per well. 50 μl of the diluted cell suspension was added to the wells in columns 3-11, working backwards from the lowest protein concentration. This step ensured a total volume of 100 μl in each well, giving a final top standard protein concentration of 250 μg/ml in the assay. Column 11 was designated as the growth control, containing cells only.
# (§5) Absorbance readings were taken at time zero (T=0) at a wavelength of 595 nm for the analysis of all Candida spp. Subsequently, all plates were incubated at 35° C. for 24 hrs. To ensure uniform resuspension of cells, a multichannel pipette was used to agitate the cell suspension. A second series of absorbance measurements at 595 nm was conducted at T=24, enabling a comprehensive assessment of growth over the 24-hour period).
# (§6) The activities of synthetic plant-like defensin analogues Olv1 and Olv2 were assessed against Candida albicans sc5314 (Table 2, FIG. 5A), Candida parapsilosis (Table 3, FIG. 5B), Candida tropicalis (Table 4, FIG. 5C) and Candida krusei (Table 5, FIG. 5D).
# (§7) Log IC50: The logarithm of the concentration at which 50% inhibition of growth is observed, Hill-slope: Describes the steepness of the curve; a steeper slope indicates a more cooperative binding to the target and a sharper transition between the non-effective and effective doses and IC50: The actual concentration at which 50% inhibition is achieved, derived from the Log IC50.
# Candida parapsilosis = conditions: estimate; for Hill-slope: dose-response curve; for IC50 / LogIC50: growth inhibition, 24 hrs, 35° C., ½ strength PDB
# Procedure: as §1, §2, §3, §4, §5, §6, §7
# Candida tropicalis = conditions: estimate; for Hill-slope: dose-response curve
# Procedure: as §1, §2, §3, §4, §5, §6, §7
# Candida krusei = test system: Candida krusei; design: LogIC50: unit not given here; conditions: estimate; for Hill-slope: dose-response curve; for IC50 / LogIC50: growth inhibition, 24 hrs, 35° C., ½ strength PDB
# Procedure: as §1, §2, §3, §4, §5, §6, §7
# [1] = Candida albicans 5314, growth inhibition, 24 hrs, 35° C., ½ strength PDB
# [2] = growth inhibition, 24 hrs, 35° C., ½ strength PDB
sequence,measurement,setting,value
RTCESQSHRFKGSCVSKSNCAAVCQTEGFPDGYCRGFRRRCFCSKHC (cysteines drawn unpaired) [Olv1],IC50,Candida albicans 5314; [1],94.113 µg/mL
same,LogIC50,Candida albicans 5314; [1],1.974
same,Hill-slope,Candida parapsilosis,−3.181
same,IC50,Candida parapsilosis,56.919 µg/mL
same,LogIC50,Candida parapsilosis,1.755
same,Hill-slope,Candida tropicalis,−9.410
same,LogIC50,Candida tropicalis; [2],1.602 log10(μg/ml)
same,Hill-slope,Candida krusei,−11.209
same,IC50,Candida krusei,90.642 µg/mL
same,LogIC50,Candida krusei,1.957
RVCSRLSKTWSGLCLNSGNCNRQCRNWEGALRGACHKRGWGFACFCYRKC (cysteines drawn unpaired) [Olv2],Hill-slope,"Candida albicans 5314; Candida albicans 5314, dose-response curve",−11.59
same,LogIC50,Candida albicans 5314; [1],1.866
same,Hill-slope,Candida parapsilosis,−3.474
same,IC50,Candida parapsilosis,54.233 µg/mL
same,LogIC50,Candida parapsilosis,1.734
same,Hill-slope,Candida tropicalis,−4.862
same,IC50,Candida tropicalis; [2],26.098 µg/mL
same,LogIC50,Candida tropicalis; [2],1.417 log10(μg/ml)
same,Hill-slope,Candida krusei,−10.527
same,IC50,Candida krusei,40.346 µg/mL
same,LogIC50,Candida krusei,1.606
